One substance from patent US20230078425A1, “COMPOSITIONS AND METHODS FOR GENERATING SYNTHETIC LETHALITY IN TUMORS” (Engine Biosciences Pte. Ltd., priority 2021, published 2023) can be followed below.

In the test the test system is LS180 cells. Kind of test: CombiGEM CRISPR/Cas9 double-knockout screen (gene A biomarker + PKMYT1), barcode LFC and GI score, LS180. It is filed as cell-based, human. The source says:
A combinatorial genetic en masse (CombiGEM™) screen is used to validate synthetic lethal pairs identified by the computational methods described in Example 1. Methods of performing CombiGEM™ are known in the art and described in U.S. Pat. No. 9,315,806; Bari, et al. (2017) Scientific Reports 7:6993; Wong, et al (2016) PNAS 113:2544-2549, each of which are incorporated by reference in their entirety. This example provides an overview of the pooled screening method to validate predicted synthetic lethal pairs of gene A biomarkers and gene B targets.
Briefly, oligonucleotide synthesis is used to generate a library of barcoded gRNA target sequences directed to gene A biomarkers (“gene A gRNA library”) and a library of barcoded gRNA target sequences directed to gene B targets (“gene B gRNA library”). […]
The barcoded sgRNA lentiviral libraries are evaluated in Cas9-expressing cancer cell lines (e.g., HT29 and/or LS180 cell lines). […] Genomic DNA is harvested and used for quantification of the integrated barcodes using a combination of barcode amplification by PCR and sequencing by NGS. […] The barcode reads are normalized per million reads for each sample. To measure cell proliferation, barcode count ratios of normalized barcode reads were calculated as fold changes. […]

For IGF1, the GI (gene interaction score = observed minus expected (gene A LFC + gene B LFC) double-knockout LFC, gene B = PKMYT1, LS180 cells) is listed as −1.07. In addition, the “LFC (gene A * B)” value (log2 fold-change of barcode counts, double knockout of gene A biomarker and PKMYT1, Cas9-expressing LS180 cells) was −1.68.
